From patent US20020072499A1, “Treatment with small peptides to effect antifibrotic activity” (Histatek, Inc., priority 1999, published 2002)
Peptide text beside a SMILES is read from it. * marks the point of attachment. For = O=C*

Key:
[1] = tested on: murine model of allergen-induced chronic asthma (OVA immunized BALB/c mice); settings: mouse, in vivo
Source text: The chronic murine model of asthma was used to test the effects of f-Met-Leu-Phe-Phe (HK-X) on persistent asthma. This murine system is a model of chronic asthma where there is enormous infiltration of inflammatory cells in association with outer boundaries of the airway basal lamina. An immunization period of five (5) months during which mice were subjected to an initial immunization procedure during the first month followed by weekly intranasal challenges with OVA established a condition of persistent asthma in the mice. […] Immunized mice were treated with HK-X eight times over a sixteen day period (i.e., every other day). […]
Airway Plug scores—by using a scoring system from + to ++++, the severity of mucus secretion into medium and large-sized airways could be measured according to the previous report (Henderson et al., J. Exp. Medicine, vol. 1-84, pp. 1483-94, Oct. 1996).
Fraction of Epithelial Cells Containing Mucous Granules—was evaluated by randomly counting the number of epithelial cells containing mucus out of 100 epithelial cells in medium to large airways (600 μm to 1,000 μm diameters). A total of 10 fields were counted in different lung lobes and the mean score was tabulated. […]
Numbers of various cell types—eosinophils and neutrophils were quantified by counting the numbers per high power field (40×) in an area of 2,200 u^2 in association with airways. […]

[2] = tested on: murine model of allergen-induced chronic asthma subjected to repeated allergic challenge (Balb/C mice); settings: mouse, in vivo
Procedure: This example reports the results of tests wherein mice having induced chronic asthma and having been treated in accord with the present invention are subsequently further challenged intranasally (“IN”) with OVA. Materials were the same as in Example 1. Balb/C mice were repeatedly immunized with OVA over a six month period as in Example 1. Thereafter, the mice were treated with 50 μg of HKX per dose intranasally for eight doses over a 16 day period, as in example 1. Then, a further regimen administered a 50 μg dose of HK-X 15-30 minutes prior to intranasal OVA challenge. This regimen was repeated for a total of three days. On the day after the last treatment the mice were sacrificed. HK-X was prepared in the same manner as in Example 1. […] The trachea and left lung (upper and lower lobes) were collected and fixed in 10% formalin at 20° C. for 15 hr. After embedding in paraffin, the tissues were cut into 5 μm sections. Eosinophils were stained in the lung tissue with Modified Discombe's Solution. […] Occlusion of the airway diameter by mucus was assessed on a semiquantitative scale ranging from 0 to 5+. For each mouse, individuals blinded to the protocol design assessed 10 airway sections randomly distributed throughout the left lung for mucus occlusion by morphometric analysis. […]

BALB/c mice = settings: mouse, in vivo
in vivo = settings: mouse
Procedure: The HK-X/OVA group of animals received HK-X dosage of 0.4 mg/Kg body weight (50 ug per 20 gm body weight per day) while the saline group received the same dosage of HK-X without OVA. […] Therefore, to maintain the plasma levels during the course of the allergen challenge, these mice received additional HK-X doses intranasally immediately before OVA challenge.

CSCC[C@H](NC=O)C(=O)N[C@@H](CC(C)C)C(=O)N[C@@H](Cc1ccccc1)C(=O)N[C@@H](Cc1ccccc1)C(=O)O [HK-X, f-Met-Leu-Phe-Phe] (For-MLFF-OH; C-terminus assumed)
pulmonary tissue of control mice administered HK-X in saline [1]: free of inflammatory cells and fibrotic collagen deposits
number of eosinophils in the lung tissues [2]: 0.75±0.18 cells per 2,200 μm^2
pulmonary tissue of control mice administered HK-X in saline [2]: free of inflammatory cells and fibrotic collagen deposits
adverse reactions or signs of sickness (BALB/c mice): No adverse reactions or signs of sickness were observed
half-life (in vivo): < 30 min
